According to PMC8100298, “Histone deacetylase inhibitor resminostat in combination with sorafenib counteracts platelet-mediated pro-tumoral effects in hepatocellular carcinoma” (Scientific Reports, 2021):
Where two headings read alike, the source gives them in different places.

Experiments:
Type in all cases: cell-based
PLC/PRF/5 = experiment: Proliferation assay; settings: for EC50: Homo sapiens, 96 h, 4 days
Source text: (§1) The cell lines HepG2 (ACC180, RRID:CVCL_0027; DMSZ, Braunschweig Germany), SNU-475 (CRL-2236, Lot. 58483227, RRID:CVCL_0497; ATCC, Manassas, Virginia, US), SNU-387 (CRL-2237, Lot. 58483192, RRID:CVCL_0250; ATCC, Virginia, US), PLC/PRF/5 (300315, Lot. 812, RRID:CVCL_0485; CLS Cell Lines Service GmbH, Eppelheim, Germany) and HuH-7 (JCRB0403, Lot. 2272008, RRID:CVCL_0336; JCRB Cell Bank, Japan) were propagated according to the distributor’s guidelines. The authenticity of the cell lines was confirmed by short tandem repeat (STR) analysis (DSMZ, Braunschweig, Germany). Mycoplasma contamination was ruled out by PCR testing. For assays with platelet lysate (PL), FBS was substituted with 10% PLTMax Human Platelet Lysate (Cat. Nr. SCM141, Lot Number VP1602259; Millipore, Burlington, Massachusetts, US). The PL was supplemented with 20 U/ml Heparin (Heparin sodium salt from porcine intestinal mucosa, H4784-250MG; Sigma-Aldrich, Taufkirchen, Germany) to prevent coagulation.
(§2) Prior to the assay, the optimal seeding density was determined for each cell line to obtain an exponential growth during the experiment (2000 to 6000 cells per 96-well). Drug dilution series with 8 concentrations were prepared for EC50 determinations of single drugs. Three wells for each concentration were seeded (technical replicates). For drug combinations, dilution series of six concentrations for each drug alone or in combination at equal ratio were prepared. After 4 h of cell seeding, the drugs were added to the cells. Each 96-well plate contained a vehicle control (0.1% or 0.2% DMSO), a death control Ro 106-9920 (Tocris Cookson Ltd., Bristol, UK) a growth control (untreated cells compared to vehicle treated cells), and blank wells without cells. The proliferation assay was stopped after 4 days by crystal violet staining of the cells (0.5% in 20% methanol). Following extraction of the crystal violet with 8% acetic acid, the eluates were quantified photometrically at 570 nm and the reference wavelength 690 nm in an absorbance microplate reader (Tecan Sunrise; Tecan, Männedorf, Switzerland). Only readouts from 96-well plates with a Z-factor between 0.5 and 1.0 were used. Blank OD values were subtracted from the mean OD values. Nonlinear curve fitting and EC50 calculation was performed with Excel Solver.

HepG2 = experiment: Proliferation assay; settings: for EC50: Homo sapiens, 96 h, 4 days
Source text: as §1, §2

HuH-7 = experiment: Proliferation assay; settings: for EC50: Homo sapiens, 96 h, 4 days
Source text: as §1, §2

PBMC = experiment: Efficacy screening assay; settings: Non-cancer, healthy donors, 72 h
Experimental: C. Western blots for acetylated α-Tubulin, total α-Tubulin, p21 and GAPDH (loading control).
Cells were treated with vehicle control (0.1 % DMSO), 1 µM or 3 µM resminostat for 24 hours. Grouped blots were composed from cropped parts of individual blots for each antibody. Original blots with exposures and indicated cropped areas can be found in the supplementary information.
D. Cell line screen determining the EC50s of resminostat in 74 cell lines representing 14 different ca ncer indications. In addition, peripheral blood mononuclear cells (PBMCs) from healthy donors were tested. Each dot represents an EC50. […]
labelled fluorogenic peptide substrates: fluorogenic peptide from p53 residues 379-382 (RHKK(Ac)AMC) for HDAC1, 2, 3, 6, 10, 11; fluorogenic HDAC Class IIa Substrate (Trifluoro acetyl Lysine, Ac-LGK(TFA)-AMC) for HDAC 4, 5, 7, 9; and fluorogenic peptide from p53 residues 379-382 (RHK(Ac)K(Ac)AMC) for HDAC8. […] In a second step, the deacetylated products were digested by the addition of developer for 1 h at 30°C to produce the fluorescent signal proportional to the amount of deacetylated substrates and the fluorescence was measured using an Envision plate reader at 355 nm (excitation) and 460 nm (emission). A kinetic measurement was performed for ~1 h with 5 min intervals and d ata from the final time point were analysed. […]

Structure (SMILES): CN(C)Cc1ccc(S(=O)(=O)n2ccc(/C=C/C(=O)NO)c2)cc1 [resminostat, Resminostat]
- EC50 (PLC/PRF/5; PLC/PRF/5, fetal bovine serum, read-out: EC50 in FBS): 1100 ± 200 nM
- EC50 (PLC/PRF/5; PLC/PRF/5, platelet lysate, read-out: EC50 in PL): 900 ± 100 nM
- effect of platelet factors on potency and efficacy (PLC/PRF/5; PLC/PRF/5, platelet lysate vs FBS dose-response curves (Fig. 2A)): unaffected
- Ratio PL/FBS (PLC/PRF/5; PLC/PRF/5, ratio of PL/FBS EC50s): 0.8
- Ratio PL/FBS (HepG2; HepG2, ratio of PL/FBS EC50s): 1.0
- EC50 (HepG2; HepG2, fetal bovine serum, read-out: EC50 in FBS): 500 ± 100 nM
- EC50 (HepG2; HepG2, platelet lysate, read-out: EC50 in PL): 500 ± 300 nM
- EC50 (HuH-7; HuH-7, fetal bovine serum, read-out: EC50 in FBS): 1000 ± 300 nM
- EC50 (HuH-7; HuH-7, platelet lysate, read-out: EC50 in PL): 1300 ± 200 nM
- Ratio PL/FBS (HuH-7; HuH-7, ratio of PL/FBS EC50s): 1.3
- EC50 (PBMC; log of EC50, negative, read-out: log(EC50) (converted)): 8710 nM
- EC50 (PBMC; read-out: EC50): 8680 nM
